The source of these data is patent US11266715B2, “C3A receptor agonists for use against ischemic brain injury, stroke, traumatic brain injury, spinal cord injury and neurodegenerative disorders” (priority 2016, dated 2022).

This test relates to GFAP. The test can be described thus: GFAP immunoreactivity in dorsal hippocampus after neonatal HI. Format: in vivo, mouse. Conditions: P55, 3 days treatment after HI. The protocol: On P51 (long-term study) or P55 (short-term study), mice were deeply anesthetized with thiopental [Pentothal Sodium (0.01 ml/g body weight), Hospira, Ill., USA)] and transcardially perfused with 0.9% saline, followed by 4% paraformaldehyde (PFA) in 0.1 M PBS. Brains were removed and post-fixed in 4% PFA at 4° C. for 24 h followed by 70% ethanol for 24 h. Tissue was processed using an automatic tissue processor (SAKURA Tissue Tek VIP 3000, Tournai, Belgium) and embedded in paraffin. Brains were cut at room temperature into 8-μm serial coronal sections using a sliding microtome (Microm HM 450, Thermo Scientific, Massachusetts, USA), attached to silane coated slides and dried at RT. […]
NeuN positive cells, GFAP positive relative area, as well as GAP-43, SYN, and VGLUT1 positive puncta were counted by using MetaMorph software (ver. 7.8.6, Molecular Devices, CA, USA) on confocal images obtained with a 20× (NeuN and GFAP) or 63× (GAP-43, SYN, and VGLUT1) objective (Carl Zeiss LSM 700 Laser Scanning Microscope, Jena, Germany). Iba-1 positive cell somata were counted on bright field images obtained with a 20× objective (Nikon Eclipse 80i). […]

As to “C3a: Purified human C3a peptide (Complement Technologies), C3a receptor agonist, amino acid sequence SEQ ID NO: 1”, the “GFAP relative area in CA1 and DG” value was “did not differ between the hemispheres or in comparison with sham mice”.
